Each block holds one molecule with its values, some of them ahead of it.
What was measured:
[1] = Antiproliferative activity against human MIAPaCa2 cells assessed as inhibition of cell proliferation; assay type: functional, cell-based; conditions: MIA PaCa-2
Alpha-enolase = Alpha-enolase (Homo sapiens, UniProt P06733); test: Inhibition of ENO1 (unknown origin)
Hexokinase-2 = biological target: T1, Hexokinase-2 (Homo sapiens, UniProt P52789); test: Inhibition of hexokinase 2 (unknown origin)
T1 sequence (P52789 whole entry): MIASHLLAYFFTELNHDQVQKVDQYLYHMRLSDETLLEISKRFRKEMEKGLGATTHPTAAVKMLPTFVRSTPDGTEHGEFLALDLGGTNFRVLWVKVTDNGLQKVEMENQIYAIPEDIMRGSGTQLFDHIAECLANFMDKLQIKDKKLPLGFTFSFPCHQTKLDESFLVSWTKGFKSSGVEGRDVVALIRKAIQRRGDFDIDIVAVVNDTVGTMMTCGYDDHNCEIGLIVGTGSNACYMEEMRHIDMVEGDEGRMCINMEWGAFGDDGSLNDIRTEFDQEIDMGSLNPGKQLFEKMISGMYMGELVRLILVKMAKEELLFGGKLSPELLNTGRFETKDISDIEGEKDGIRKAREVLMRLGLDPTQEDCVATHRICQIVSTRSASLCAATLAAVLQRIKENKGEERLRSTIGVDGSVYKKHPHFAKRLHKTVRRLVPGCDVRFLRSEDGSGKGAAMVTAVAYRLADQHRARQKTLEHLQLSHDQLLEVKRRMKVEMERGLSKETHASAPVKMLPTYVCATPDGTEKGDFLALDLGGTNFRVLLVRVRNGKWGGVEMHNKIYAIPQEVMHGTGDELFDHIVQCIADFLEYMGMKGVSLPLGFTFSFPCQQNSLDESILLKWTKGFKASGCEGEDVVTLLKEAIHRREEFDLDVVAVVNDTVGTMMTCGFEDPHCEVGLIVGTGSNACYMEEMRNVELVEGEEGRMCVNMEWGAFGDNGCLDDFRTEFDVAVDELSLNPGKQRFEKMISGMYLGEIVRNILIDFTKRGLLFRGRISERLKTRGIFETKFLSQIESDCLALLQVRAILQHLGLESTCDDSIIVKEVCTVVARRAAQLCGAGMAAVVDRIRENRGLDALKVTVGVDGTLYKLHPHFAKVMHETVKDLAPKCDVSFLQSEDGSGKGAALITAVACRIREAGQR

Pyruvate kinase PKM [2] = biological target: T2, Pyruvate kinase PKM (Homo sapiens, UniProt P14618); test: Activation of pyruvate kinase PKM2 (unknown origin)
T2 sequence (P14618 whole entry): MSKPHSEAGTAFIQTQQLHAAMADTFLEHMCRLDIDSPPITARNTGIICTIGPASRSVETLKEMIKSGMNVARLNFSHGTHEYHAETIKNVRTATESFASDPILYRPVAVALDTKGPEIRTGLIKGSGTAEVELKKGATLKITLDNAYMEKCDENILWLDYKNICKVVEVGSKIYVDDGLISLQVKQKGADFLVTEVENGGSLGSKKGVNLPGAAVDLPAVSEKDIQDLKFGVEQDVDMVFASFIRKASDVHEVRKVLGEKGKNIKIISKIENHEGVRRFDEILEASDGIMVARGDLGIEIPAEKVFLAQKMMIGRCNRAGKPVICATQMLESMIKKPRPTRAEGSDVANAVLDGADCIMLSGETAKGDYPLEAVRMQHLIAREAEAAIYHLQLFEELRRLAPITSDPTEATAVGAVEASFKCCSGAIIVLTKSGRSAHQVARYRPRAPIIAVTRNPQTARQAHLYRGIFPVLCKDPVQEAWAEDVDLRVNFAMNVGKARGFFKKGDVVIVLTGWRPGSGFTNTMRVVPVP

[3] = Growth inhibition of VHL-positive human RCC4/VHL cells; assay type: functional, cell-based
[4] = Growth inhibition of VHL deficient human RCC4 cells; assay type: functional, cell-based
[5] = biological target: 6-phosphofructo-2-kinase/fructose-2,6-bisphosphatase 3 (Homo sapiens, UniProt Q16875); test: Inhibition of PFKFB3 (unknown origin)
Chain of 6-phosphofructo-2-kinase/fructose-2,6-bisphosphatase 3 (Q16875 whole entry): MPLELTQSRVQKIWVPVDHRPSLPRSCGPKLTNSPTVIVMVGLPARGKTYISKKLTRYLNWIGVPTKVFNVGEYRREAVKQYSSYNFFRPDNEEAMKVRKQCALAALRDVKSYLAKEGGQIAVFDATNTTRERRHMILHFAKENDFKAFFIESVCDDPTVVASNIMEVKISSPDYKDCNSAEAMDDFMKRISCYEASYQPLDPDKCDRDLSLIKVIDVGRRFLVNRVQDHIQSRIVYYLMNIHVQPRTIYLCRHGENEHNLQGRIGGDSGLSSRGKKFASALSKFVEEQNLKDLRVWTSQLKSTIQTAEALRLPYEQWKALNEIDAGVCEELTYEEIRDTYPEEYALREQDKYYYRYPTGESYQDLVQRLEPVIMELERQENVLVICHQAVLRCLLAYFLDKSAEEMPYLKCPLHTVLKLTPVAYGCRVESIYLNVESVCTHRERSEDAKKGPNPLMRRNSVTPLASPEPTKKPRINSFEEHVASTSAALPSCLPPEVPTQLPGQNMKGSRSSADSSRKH

Pyruvate kinase PKM [6] = biological target: T2, Pyruvate kinase PKM; test: Activation of pyruvate kinase PKM2 in human A549 cells; assay type: cell-based
A549 = test: Antitumor activity against human A549 cells in in-vivo xenograft model assessed as reduction in tumor volume at 10 mg/kg/day, ip; assay type: functional; conditions: route intraperitoneal
[7] = Cytotoxicity against human H1299 cells assessed as reduction in cell viability; assay type: functional, cell-based; conditions: NCI-H1299
Homo sapiens = species on record: Homo sapiens; test: Inhibition of glucose transporter GLUT (unknown origin) by standard glucose uptake assay; conditions: concentration not given here
[8] = Growth inhibition of human H1299 cells; assay type: functional, NCI-H1299
[9] = biological target: T3, Monocarboxylate transporter 1 (Homo sapiens, UniProt P53985); test: Binding affinity to MCT1 (unknown origin)
T3 sequence (P53985 whole entry): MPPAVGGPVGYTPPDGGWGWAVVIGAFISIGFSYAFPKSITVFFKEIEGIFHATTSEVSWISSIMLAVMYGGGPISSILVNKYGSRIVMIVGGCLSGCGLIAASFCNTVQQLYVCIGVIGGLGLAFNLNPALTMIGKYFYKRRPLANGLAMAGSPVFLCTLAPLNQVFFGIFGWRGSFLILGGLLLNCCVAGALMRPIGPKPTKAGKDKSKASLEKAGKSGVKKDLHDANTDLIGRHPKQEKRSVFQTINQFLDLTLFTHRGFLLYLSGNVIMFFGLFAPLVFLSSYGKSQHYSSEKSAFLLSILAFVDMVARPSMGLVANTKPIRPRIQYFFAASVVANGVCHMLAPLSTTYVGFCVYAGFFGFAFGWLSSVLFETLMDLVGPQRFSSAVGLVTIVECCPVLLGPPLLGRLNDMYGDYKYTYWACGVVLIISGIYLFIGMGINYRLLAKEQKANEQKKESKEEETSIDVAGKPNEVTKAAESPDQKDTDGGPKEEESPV

Chain of Alpha-enolase (P06733 whole entry): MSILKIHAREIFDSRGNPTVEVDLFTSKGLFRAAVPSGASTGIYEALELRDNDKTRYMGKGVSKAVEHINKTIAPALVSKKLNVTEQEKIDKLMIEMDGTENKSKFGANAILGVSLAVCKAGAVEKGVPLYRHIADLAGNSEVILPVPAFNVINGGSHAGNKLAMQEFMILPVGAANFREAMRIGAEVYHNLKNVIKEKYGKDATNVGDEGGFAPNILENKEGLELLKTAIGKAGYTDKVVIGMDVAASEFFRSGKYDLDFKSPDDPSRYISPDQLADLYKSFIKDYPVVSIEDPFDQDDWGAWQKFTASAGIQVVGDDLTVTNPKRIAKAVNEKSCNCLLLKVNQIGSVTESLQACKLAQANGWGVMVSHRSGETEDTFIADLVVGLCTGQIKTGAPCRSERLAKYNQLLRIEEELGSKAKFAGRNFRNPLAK

Structure (SMILES): O=C1CC(c2ccc(N3CCOCC3)cc2)(c2ccsc2)NC(=O)C1Sc1ccccc1Cl (stereo not given)
EC50 [1]: 250 nM

Structure (SMILES): NCCOCCOCCNC(=O)Cc1ccc(Nc2nc(NCc3ccc(F)cc3)nc(NCC3CCCCC3)n2)cc1
IC50 (Alpha-enolase): 576 nM

Structure (SMILES): NCCOCCOCCOCCOCCOCCOCCCc1ccc(S(=O)(=O)NCc2ccc(C(=O)Nc3cccnc3)cc2)cc1
IC50 [3]: > 40000 nM
IC50 [4]: 7900 nM

Structure (SMILES): O=C(/C=C/c1cccnc1)c1ccncc1
IC50 [5]: 22900 nM

Structure (SMILES): Cc1[nH]nc(C(F)(F)F)c1Cc1sc2c(c1C(=O)N1C[C@](C)(O)CO1)c(=O)n(C)c(=O)n2C(C)C [AZD3965]
Kd [9]: 1.6 nM

The next lines start with results.

IC50 (Hexokinase-2): < 316 nM
Structure (SMILES): Cc1ccc(S(=O)(=O)NC[C@H]2O[C@@H](O)[C@H](NC(=O)/C=C/c3ccc(Cl)c(Cl)c3)[C@@H](O)[C@@H]2O)cc1

AC50 (Pyruvate kinase PKM [2]): 45 nM
Structure (SMILES): CS(=O)(=O)N1CCc2cc(S(=O)(=O)c3ccc4c(c3)OCCO4)ccc21

IC50 [5]: 207 nM
Structure (SMILES): O=C(/C=C/c1ccc2ccccc2n1)c1ccncc1

AC50 (Pyruvate kinase PKM [2]): 17 nM
AC50 (Pyruvate kinase PKM [6]): 45 nM
Structure (SMILES): COc1ccccc1N1CCN(C(=O)c2ccc(NS(=O)(=O)c3cccc4cccnc34)cc2)CC1

inhibition (Homo sapiens): 93%
Structure (SMILES): O=C(Oc1cccc(F)c1OC(=O)c1cccc(O)c1)c1cccc(O)c1
inhibition in vivo at 10 mg/kg/day (A549): 70%
IC50 [7]: 10000 nM
growth inhibition (GI) [8]: 41%

From ChEMBL document CHEMBL3351282, “An update on therapeutic opportunities offered by cancer glycolytic metabolism” (Bioorg Med Chem Lett, 2014)
